Measured values from ChEMBL document CHEMBL4616640, “Discovery of novel pyrrole derivatives as potent agonists for the niacin receptor GPR109A” (Bioorg Med Chem Lett, 2020).

Assay: AUC (0 to 7 hrs) in rat at 10 mg/kg, po
Format: ADME, organism-based
Set-up: dose 10 mg/kg, time < 7 hr, route oral
Details: in vivo

AUC(0-t) at 7 h: 630 ng·h/mL
SMILES: CCCCn1cc(NC(=O)CCc2nc(-c3ccc(O)cn3)no2)c(C(=O)O)c1
